Experimental data: patent US7998933B2, “Process for treating the skin comprising applying to the skin at least one composition comprising at least one N-aminoacylamide” (L'Oreal S.A., priority 2000, dated 2011)

How the values were obtained:
[1] = biological target: T1, human leukocyte elastase (HLE) (Homo sapiens, UniProt P08246); test: in vitro anti-elastase activity, substrate Me-OSAAPV-p-NA, spectrophotometry; type: biochemical
T1 sequence (P08246 30-267): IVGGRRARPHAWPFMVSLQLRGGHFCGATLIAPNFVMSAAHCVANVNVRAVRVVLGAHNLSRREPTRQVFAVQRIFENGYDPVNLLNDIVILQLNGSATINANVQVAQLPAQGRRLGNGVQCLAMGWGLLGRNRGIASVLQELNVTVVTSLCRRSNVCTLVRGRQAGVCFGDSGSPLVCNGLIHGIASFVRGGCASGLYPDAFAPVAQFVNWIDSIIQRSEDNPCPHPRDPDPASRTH
Experimental: The in vitro anti-elastase activity of compounds according to the invention with respect to human leukocyte elastase (HLE) was determined. […]
The percentage inhibition of the control elastase activity is then determined by spectrophotometry.

[2] = test system: surviving human skin treated with human leukocyte elastase (HLE); test: ex vivo activity on fresh sections of human skin treated with HLE for 2 hours, morphometric quantification of elastic fibres; type: cell-based; conditions: 10 μg/ml HLE + 0.1% compound, 2 hours at 20° C.
Experimental: (§1) The ex vivo activity of the compound of Example 2 was evaluated on surviving human skin treated with human leukocyte elastase (HLE).
Fresh sections of human skin, obtained from 2 different donors, are treated for 2 hours at 20° C. with 20 μl of buffer solution (pH 7.4) optionally comprising 10 μg/ml of HLE and optionally 0.1% of the test compound, optionally predissolved in ethanol.
(§2) The elastic fibres are stained blue with (+)-catechin and morphometrically quantified by computer-assisted image analysis. The percentage of average dermal surface area occupied by the elastic fibres is thus evaluated.

[3] = test system: surviving human skin treated with human leukocyte elastase (HLE); test: ex vivo activity on human skin fragments kept alive in culture for 10 days with HLE, morphometric quantification of elastic fibres; type: cell-based; conditions: three donors; 0.5 μg/ml HLE + 5 μl of 0.2% compound in ethanol every two days, 10 days at 37° C.; control 7.4%, HLE alone 5.1%
Experimental: as §1
(§3) Fragments of normal human skin obtained from three different donors are placed in inserts positioned in culture wells. Culture medium supplemented with antibiotics is placed in the bottom of the wells. A passage is carried out by slow diffusion between the two compartments by means of a porous membrane (pore size: 12 μm).
(§4) The culture medium is freshened every three days.
0.5 μg of HLE per ml of culture medium is optionally added to the skin fragments.
5 μl of the test compound, predissolved at a concentration of 0.2% by weight in ethanol, is also added every two days.
The skins are kept alive for 10 days at 37° C.
as §2

[4] = test system: surviving human skin irradiated with UVA (8 J/cm^2); test: activity on surviving human skin irradiated with UVA, morphometric analysis of elastic fibres and collagen; type: cell-based; conditions: UVA 8 J/cm^2 once + 5 μl of 0.2% compound every two days, 7 days at 37° C.
Experimental: The activity of the compound of Example 2 on surviving human skin irradiated with UVA (8 J/cm^2) was evaluated.
as §3, with “four” for “three”
as §4
5 μl of the test compound, predissolved at a concentration of 0.2% in ethanol, is added to the skin fragments every two days.
The skins are kept alive for 7 days at 37° C.
The skins are irradiated once at 8 J/cm^2 (Vilbert-Lourmat RMX-3W lamp).
as §2

[5] = compound concentration 0.1%, HLE 40 milliunits per ml, 37° C., 60 minutes

SMILES: CCOC(=O)CNC(=O)C(C(C)C)N(Cc1ccccc1)C(=O)CP(=O)(OCC)OCC (centres unmarked) [Compound B, ethyl [2-{benzyl((diethoxyphosphoryl)acetyl]amino}-3-methylbutyrylamino)acetate]
- % inhibition of the control elastase activity [1, 5]: 17%

SMILES: CC(=O)N(Cc1ccccc1)C(C(=O)NCC(=O)O)C(C)C (centres unmarked) [Compound C, [2-(acetylbenzylamino)-3-methylbutyrylamino]acetic acid]
- % inhibition of the control elastase activity [1, 5]: 20%

SMILES: CCOC(=O)CNC(=O)C(C(C)C)N(Cc1ccccc1)C(C)=O (centres unmarked) [Compound D, ethyl [2-(acetylbenzylamino)-3-methylbutyrylamino]acetate]
- % inhibition of the control elastase activity [1, 5]: 13%

SMILES: CC(=O)N(c1cccc(C(F)(F)F)c1)C(C(=O)NCC(=O)O)C(C)C (centres unmarked) [Example 2, {2-[acetyl (3-trifluoromethylphenyl)amino]-3-methylbutyrylamino}acetic acid]
- % of surface area occupied by the elastic fibres ([2]; Skin 1, control 12.7%, HLE alone 4.85%): 13.95%
- % of surface area occupied by the elastic fibres ([2]; Skin 2, control 15.25%, HLE alone 6.85%): 11.85%
- inhibition of the elastase activity (in words) [1]: strong inhibition of the elastase activity, even in a small amount
- % inhibition of the control elastase activity [1, 5]: 67%
- % inhibition of the control elastase activity ([1]; concentration of compound A 0.01%): 53%
- % inhibition of the control elastase activity ([1]; concentration of compound A 0.05%): 50%
- % inhibition of the control elastase activity ([1]; concentration of compound A 0.1% (concentration series)): 68%
- % inhibition of the control elastase activity ([1]; concentration of compound A 0.2%): 68%
- % of surface area occupied by the elastic fibres [3]: 7.1%
- Morphometric analysis of the elastic fibres (superficial dermis) ([4]; untreated 6.75%, UVA alone 3.9%): 6.8%
- Morphometric analysis of the collagen (superficial dermis) ([4]; untreated 87%, UVA alone 81%): 92%
